In patent US11317626B2, “Forchlorfenuron mixtures and uses thereof” (Valent BioSciences LLC, priority 2018, dated 2022):

How the values were obtained:
Type in all cases: in vivo
Malus (apple) rootstocks = assay: Example 4: bud break and shoot growth of Malus (apple) rootstocks; conditions: for Fresh Weight at Harvest: combined new shoot growth; for Fresh Weight at Harvest / Average Number of Broken Buds Per Malus Plant at Harvest / Fresh Weight per Bud at Harvest / Average Number of Broken Nodes Per Centimeter of Shoot at Harvest: harvest at 28 days; for Average Number of Broken Nodes Per Centimeter of Shoot at Harvest: rootstocks pruned to 25 centimeters
Protocol: (§1) To determine if the mixtures provided unexpected results, the observed combined efficacy (“OCE”) was divided by the expected combined efficacy (“ECE”) wherein the expected ECE is calculated by the Abbott method: ECE=A+B−(AB/100), • wherein ECE is the expected combined efficacy and in which A and B are the speed of bud break relative to control, the number of buds broken per plant relative to control, shoot length relative to control or shoot weight relative to control given by the single active ingredients. If the ratio between the OCE of the mixture and the ECE of the mixture is greater than 1, then greater than expected interactions are present in the mixture. (Gisi, Synergistic Interaction of Fungicides in Mixtures, The American Phytopathological Society, 86:11, 1273-1279,1996). Results
To assess the ability of mixtures of the invention to promote and synchronize bud break, these mixtures were applied to field-grown Malus (apple) rootstocks and examined for bud break (initiation of growth) and subsequent shoot development. Forchlorfenuron, Dormex (50% HC), 15-0-0 (Erger®) and 17-0-0 fertilizers (CAN17), and mixtures thereof were each applied individually or sequentially (co-applied) to the shoots of potted Malus rootstocks that were pruned to a height of 25 centimeters. Plants were evaluated for bud break at 28 days after treatment.

Concord grape vines [1] = assay: Example 2: Concord grape vines greenhouse, forchlorfenuron and 15-0-0 fertilizer (Erger) study; conditions: for Fresh Weight at Harvest: combined shoot fresh weight, 52 days after planting; for 50% BB: days after treatment to 50% bud break; for Average Number of Broken Nodes Per Plant at Harvest: harvest 52 days after planting
Source text: (§2) To assess the ability of mixtures of the invention to promote and synchronize bud break these mixtures were applied to Concord grape vines and examined for bud break (initiation of growth) and subsequent shoot development. Specifically, dormant bare-rooted Concord grape vines were planted in pots containing Pro-Mix® BX potting soil (Pro-Mix is a registered trademark of and available from Premier Horticulture Ltd.) and pruned to five nodes on a single shoot of one-year-old wood. Nodes are regions on the shoot where leaves arise from the shoot and buds are present at the axis of the shoot:leaf interface. The bud found at the shoot:leaf interface develops into the vines new shoot growth. Aqueous solutions of forchlorfenuron, HC, 15-0-0 fertilizer, 17-0-0 fertilizer, and mixtures thereof were each applied individually or sequentially or co-applied to the first-year wood of separate Concord grape vines. […] Percent bud break is determined by the number of plants that have at least one bud broken divided by the total number of plants per treatment times 100. […] New shoot growth is the growth arising from the dormant buds not including the woody growth that was planted and gave rise to the new growth.
as §1
(§3) The experiment from Example 1 was repeated with varying quantities of forchlorfenuron and fertilizers in a greenhouse experiment.

Concord grape vines [2] = assay: Example 2: Concord grape vines greenhouse, forchlorfenuron and 17-0-0 fertilizer (CAN17) study; conditions: for Fresh Weight at Harvest: combined shoot fresh weight, 52 days after planting; for 50% BB: days after treatment to 50% bud break; for Average Number of Broken Nodes Per Plant at Harvest: harvest 52 days after planting
Source text: as §2, §1, §3

O=C(Nc1ccccc1)Nc1ccnc(Cl)c1 [CPPU, N-(2-Chloro-4-pyridyl)-N′-phenylurea] was tested, and the “Fresh Weight at Harvest” value (Malus (apple) rootstocks; listed as CPPU 300 ppm) was 6.98 grams, the “Fresh Weight at Harvest” value (Malus (apple) rootstocks; listed as CPPU 600 ppm) was 5.65 grams and the “50% BB” value (Malus (apple) rootstocks; days after treatment to 50% bud break) was 12 days. The “Average Number of Broken Buds Per Malus Plant at Harvest” value (Malus (apple) rootstocks; listed as CPPU 300 ppm) was 7.00, the “Fresh Weight per Bud at Harvest” value (Malus (apple) rootstocks; listed as CPPU 300 ppm) was 0.88 grams and the “Average Number of Broken Buds Per Malus Plant at Harvest” value (Malus (apple) rootstocks; listed as CPPU 600 ppm) was 8.25. The “Fresh Weight per Bud at Harvest” value (Malus (apple) rootstocks; listed as CPPU 600 ppm) was 0.71 grams, the “Average Number of Broken Nodes Per Centimeter of Shoot at Harvest” value (Malus (apple) rootstocks; listed as CPPU 300 ppm) was 0.28 and the “Average Number of Broken Nodes Per Centimeter of Shoot at Harvest” value (Malus (apple) rootstocks; listed as CPPU 600 ppm) was 0.33. For the same compound, the “50% BB OCE” value (Malus (apple) rootstocks; observed efficacy, relative to control) was 2, the “Fresh Weight at Harvest” value (Concord grape vines [1]; listed as CPPU 300 ppm) was 18.04 grams and the “Fresh Weight at Harvest” value (Concord grape vines [1]; listed as CPPU 600 ppm) was 18.54 grams. The “Fresh Weight at Harvest” value (Concord grape vines [1]; listed as CPPU 1000 ppm) was 29.13 grams, the “50% BB” value (Concord grape vines [1]; listed as CPPU 300 ppm) was 26 days and the “50% BB” value (Concord grape vines [1]; listed as CPPU 600 ppm) was 31 days. For the same compound, the “50% BB” value (Concord grape vines [1]; listed as CPPU 1000 ppm) was 24 days, the “Average Number of Broken Nodes Per Plant at Harvest” value (Concord grape vines [1]; listed as CPPU 300 ppm) was 1.25 and the “Average Number of Broken Nodes Per Plant at Harvest” value (Concord grape vines [1]; listed as CPPU 600 ppm) was 1.88. The “Average Number of Broken Nodes Per Plant at Harvest” value (Concord grape vines [1]; listed as CPPU 1000 ppm) was 2.63, the “Fresh Weight at Harvest” value (Concord grape vines [2]; listed as CPPU 300 ppm) was 14.30 grams and the “Fresh Weight at Harvest” value (Concord grape vines [2]; listed as CPPU 600 ppm) was 15.10 grams. For the same compound, the “Fresh Weight at Harvest” value (Concord grape vines [2]; listed as CPPU 1000 ppm) was 11.33 grams, the “50% BB” value (Concord grape vines [2]; listed as CPPU 300 ppm) was 31 days and the “50% BB” value (Concord grape vines [2]; listed as CPPU 600 ppm) was 35 days. For the same compound, the “50% BB” value (Concord grape vines [2]; listed as CPPU 1000 ppm) was 38 days, the “Average Number of Broken Nodes Per Plant at Harvest” value (Concord grape vines [2]; listed as CPPU 300 ppm) was 1.86 and the “Average Number of Broken Nodes Per Plant at Harvest” value (Concord grape vines [2]; listed as CPPU 600 ppm) was 2.00. The “Average Number of Broken Nodes Per Plant at Harvest” value (Concord grape vines [2]; listed as CPPU 1000 ppm) was 1.80.
